Patent US10869931B2, “Polyethylene glycol-modified angiogenesis inhibitor HM-1 and application thereof” (NANJING ANJI BIOLOGICAL TECHNOLOGY CO.,LTD, priority 2016, dated 2020)
Marks after values point to notes of the source that are not given here. Where no end group is shown, it is not given here.

What was measured:
[1] = test system: carrageenan-induced toe swelling in SD rats; experiment: Carrageenan-induced acute toe swelling in rats; assay type: in vivo, rat; set-up: Swelling: unit not given here
Procedure, shortened: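 SD rats dosed with mPEG-HM-1 once daily for 3 days […]; 1 h after last dose, 0.1 mL 1% carrageenan injected subcutaneously into right hind paw. Paw volume measured by liquid displacement at 1, 3, 5 and 7 h; swelling = post- minus pre-inflammation volume (mL).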

[2] = test system: Breast cancer tumor cells; experiment: MTT proliferation inhibition, breast cancer cells; assay type: cell-based, human; set-up: concentration or dose not given beside the values; details: 48 h
Procedure, shortened: (§1)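 Tumour cells plated at 2×10^4 cells/mL, attached overnight, then exposed to dilutions of mPEG-HM-1 for 48 h at 37 °C, 5% CO2. MTT added 4 h, formazan dissolved in DMSO, absorbance 570/630 nm; growth inhibition = 1 − treated/untreated, three independent repeats, mean±SD.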

Brain tumor cells = experiment: MTT proliferation inhibition, brain tumor cells; assay type: cell-based, human; set-up: concentration or dose not given beside the values; details: 48 h
Procedure, shortened: as §1

[3] = test system: Prostate cancer tumor cells; experiment: MTT proliferation inhibition, prostate cancer cells; assay type: cell-based, human; set-up: concentration or dose not given beside the values; details: 48 h
Procedure, shortened: as §1

[4] = test system: Esophageal cancer tumor cells; experiment: MTT proliferation inhibition, esophageal cancer cells; assay type: cell-based, human; set-up: concentration or dose not given beside the values; details: 48 h
Procedure, shortened: as §1

[5] = test system: Colorectal cancer tumor cells; experiment: MTT proliferation inhibition, colorectal cancer cells; assay type: cell-based, human; set-up: concentration or dose not given beside the values; details: 48 h
Procedure, shortened: as §1

[6] = test system: collagen induced arthritis (CIA) in DBA/1 mice; experiment: Collagen-induced mouse arthritis (CIA) model; assay type: in vivo; details: for Joint swelling / Left and right paw swelling / Clinical score: CIA DBA/1 mice; for Clinical score: maximum score 16
[7] = test system: Human Umbilical Vein Endothelial Cells (HUVEC); experiment: Transwell migration of HUVEC; assay type: cell-based; details: 24 h
Procedure, shortened: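 HUVEC (1×10^5/mL in blank medium) seeded with test solutions into Matrigel-coated transwell inserts, lower chamber holding medium with 5% FBS and 1% ECGS, 24 h at 37 °C. Migrated cells crystal-violet stained and counted in four fields; migration inhibition calculated from test versus blank-control counts, three independent repeats.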

Hemangioma tumor cells = experiment: MTT proliferation inhibition, hemangioma cells; assay type: cell-based, human; set-up: concentration or dose not given beside the values; details: 48 h
Procedure, shortened: as §1

[8] = 40 mg/kg once a day for 3 days, 1 h after carrageenan
[9] = 40 mg/kg once a day for 3 days, 3 h after carrageenan
[10] = 40 mg/kg once a day for 3 days, 5 h after carrageenan
[11] = 40 mg/kg once a day for 3 days, 7 h after carrageenan
[12] = 40 mg/kg subcutaneous from day 30 of modeling
[13] = 20 mg/kg subcutaneous from day 30 of modeling

Substance: mPEG-ALD20k-Arg-Gly-Ala-Asp-Arg-Ala-Gly-Gly-Gly-Gly-Arg-Gly-Asp ({mPEG‑ALD 20 kDa}-RGADRAGGGGRGD) [mPEG-ALD20k-HM-1]
- Swelling [1, 8]: 0.27 ± 0.13
- Swelling [1, 9]: 0.34 ± 0.16
- Swelling [1, 10]: 0.41 ± 0.14
- Swelling [1, 11]: 0.35 ± 0.13
- Swelling ([1]; 80 mg/kg once a day for 3 days, 1 h after carrageenan): 0.25 ± 0.09
- Swelling ([1]; 80 mg/kg once a day for 3 days, 3 h after carrageenan): 0.32 ± 0.11
- Swelling ([1]; 80 mg/kg once a day for 3 days, 5 h after carrageenan): 0.40 ± 0.15
- Swelling ([1]; 80 mg/kg once a day for 3 days, 7 h after carrageenan): 0.32 ± 0.16
- rate of growth inhibition [2]: 65.17 ± 18.20%
- rate of growth inhibition (Brain tumor cells): 56.89 ± 15.41%
- rate of growth inhibition [3]: 43.99 ± 12.77%
- rate of growth inhibition [4]: 60.18 ± 15.32%
- rate of growth inhibition [5]: 72.43 ± 19.32%
- Joint swelling [6, 12]: 0.72 ± 0.16 mm
- Left and right paw swelling [6, 12]: 0.74 ± 0.13 mm
- Clinical score [6, 12]: 8.66 ± 1.38
- cell migration number (Mean ± SD) ([7]; 70 μg/mL): 611.92 ± 52.08
- inhibition rate of HUVEC migration ([7]; 70 μg/mL): 40.53%*
- cell migration number (Mean ± SD) ([7]; 80 μg/mL): 507.07 ± 40.74
- inhibition rate of HUVEC migration ([7]; 80 μg/mL): 50.72%
- cell migration number (Mean ± SD) ([7]; 90 μg/mL): 403.15 ± 48.80
- inhibition rate of HUVEC migration ([7]; 90 μg/mL): 60.82%
- cell migration number (Mean ± SD) ([7]; 100 μg/mL): 564.59 ± 50.42
- inhibition rate of HUVEC migration ([7]; 100 μg/mL): 45.13%*
- rate of growth inhibition (Hemangioma tumor cells): 53.30 ± 16.06%

Substance: mPEG-ALD10k-Arg-Gly-Ala-Asp-Arg-Ala-Gly-Gly-Gly-Gly-Arg-Gly-Asp ({mPEG‑ALD 10 kDa}-RGADRAGGGGRGD) [mPEG-ALD10k-HM-1]
- Swelling ([1]; 20 mg/kg once a day for 3 days, 1 h after carrageenan): 0.24 ± 0.12
- Swelling ([1]; 20 mg/kg once a day for 3 days, 3 h after carrageenan): 0.36 ± 0.13
- Swelling ([1]; 20 mg/kg once a day for 3 days, 5 h after carrageenan): 0.42 ± 0.15
- Swelling ([1]; 20 mg/kg once a day for 3 days, 7 h after carrageenan): 0.32 ± 0.10
- Swelling [1, 8]: 0.21 ± 0.10
- Swelling [1, 9]: 0.31 ± 0.20
- Swelling [1, 10]: 0.36 ± 0.13
- Swelling [1, 11]: 0.33 ± 0.12
- inhibition of carrageenan-induced toe swelling (in words) ([1]; rats, 40 mg/kg, once a day for 3 days): most effective
- rate of growth inhibition [2]: 70.19 ± 17.07%
- rate of growth inhibition (Brain tumor cells): 58.25 ± 14.02%
- rate of growth inhibition [3]: 51.09 ± 11.78%
- rate of growth inhibition [4]: 65.18 ± 15.16%
- rate of growth inhibition [5]: 80.22 ± 20.03%
- Joint swelling [6, 13]: 0.73 ± 0.15 mm
- Left and right paw swelling [6, 13]: 0.70 ± 0.14 mm
- Clinical score [6, 13]: 8.65 ± 1.33
- limbs score (in words) ([6]; CIA mice, subcutaneous, once every three days, vs model control group): significantly lower than that of the model control group
- cell migration number (Mean ± SD) ([7]; 50 μg/mL): 604.31 ± 52.14
- inhibition rate of HUVEC migration ([7]; 50 μg/mL): 41.27%*
- cell migration number (Mean ± SD) ([7]; 60 μg/mL): 514.38 ± 42.38
- inhibition rate of HUVEC migration ([7]; 60 μg/mL): 50.01%
- cell migration number (Mean ± SD) ([7]; 70 μg/mL): 417.96 ± 50.48
- inhibition rate of HUVEC migration ([7]; 70 μg/mL): 59.38%
- cell migration number (Mean ± SD) ([7]; 80 μg/mL): 548.54 ± 56.22
- inhibition rate of HUVEC migration ([7]; 80 μg/mL): 46.69%*
- rate of growth inhibition (Hemangioma tumor cells): 60.25 ± 14.33%
